By pIC50 is commonly meant the negative decadic logarithm of the IC50, by convention in mol/L.

Molecules are shown by their SMILES. pIC50: −log10 of the molar value. Entries after “also recorded” stand apart in the source; their conditions may differ. Read-outs that look alike come from different tables or passages of the source.

The format of data set [1] is in vivo. The following applies: for time of death of one mouse: male, scid/scid, beige/beige, 48 hr. The method, then: A study with synthetic compounds 13-7-2 (flavopereirine) and 13-9-1 (de-ethylflavopereirine) was conducted to compare the toxicity of the two compounds in animals. The compounds were dissolved in phosphate buffered saline for administration. Both compounds were injected IP in male immunodeficient (homozygous recessive scid/scid, beige/beige) mice.
Compound 13-7-2 was injected at a dose of 100 mg/kg, 150 mg/kg, and 200 mg/kg in mice divided in groups of two. […] One mouse injected with 150 mg/kg died at 6 hr whereas one mouse injected with 200 mg/kg dose died at 24 hr. One mouse injected with 100 mg/kg dose died at 48 hr.
Compound 13-9-1 was injected at a dose of 100 mg/kg, 150 mg/kg, and 200 mg/kg in mice divided in groups of two.

The next data set relates to RPWE-1. The data set is described as follows: Cell Proliferation (anti-cancer), RPWE-1. In kind it is cell-based, human. The method, then: (§1) The primary goal of synthesizing de-ethylflavopereirine (compound 13-9-1) was to generate a different compound that still retains the anti-cancer cell activity of flavopereirine (compound 13-7-2). Comparison of the effects of the two compounds on proliferation of a variety of cancer cells confirmed that this goal was achieved. For example, the effect of de-ethylflavopereirine on two human breast cancer cell lines and two human prostate cancer cell lines were analyzed.

The subject of the next data set is LnCap. Put plainly: Cell Proliferation (anti-cancer), LnCap. The class given is cell-based, human. The method, then:
as §1

The conditions of data set [2]: mouse, in vivo. The method, then:
To estimate the maximum tolerated dose of compounds 13-7-2 and 13-9-1 in mice, both compounds were dissolved in PBS and given to SCID mice by oral gavage.
Compound 13-7-2 was administered at a dose of 100 mg/kg, 150 mg/kg, or 200 mg/kg. Each dose group consisted of three mice.
Compound 13-9-1 was administered at a dose of 100 mg/kg, 150 mg/kg, or 200 mg/kg by oral gavage (three mice per dose group).
In a separate dose finding/toxicity test with compound 13-9-1, three mice received escalating doses of 50 mg/kg/day for 3 days, 100 mg/kg/day for 7 days, 200 mg/kg/day for 7 days, and 300 mg/kg/day for 3 days, given by oral gavage. Mice were monitored closely for toxic signs.

Data set [3] concerns MIA PaCa, PANC-1, AsPc, BxPc. Put plainly: Growth inhibition, gemcitabine alone or plus de-ethylflavopereirine. In kind it is cell-based. The following applies: four pancreatic cancer cell lines.
[4] abbreviates: Homo sapiens, after any period of treatment, read-out: Minimum Dose (IC50) needed to decrease growth 50% or greater versus control.

For `CCc1ccc2c3[nH]c4ccccc4c3cc[n+]2c1` [Compound 13-7-2, flavopereirine], the “mice that died after IP injection” value in data set [1] (all doses tested (100, 150, 200 mg/kg)) is 50%. For the same molecule, the “time of death of one mouse” value in data set [1] (mouse, in vivo, ip, 100 mg/kg) came out at 48 h; in data set [1] (mouse, in vivo, ip, 150 mg/kg), 6 h; in data set [1] (mouse, in vivo, ip, 200 mg/kg), 24 h. Further, the adverse effects observed result in data set [1] (mouse, in vivo, ip, 100 mg/kg) is reported as “swollen abdomen”; in data set [2] (SCID, po, 100 mg/kg, 48 hr), “No signs of distress were observed in the 100 mg/kg group of mice with the exception of bradycardia 15 min after the administration of the compound in one mouse”. The “Growth Inhibition” value in the data set with RPWE-1 and in the data set with LnCap was “Yes” in each case. Moreover, the negative logarithm of the IC50 (pIC50) in the data set on RPWE-1 (setting [4]) and with LnCap (setting [4]) was 5.00 in each case. Moreover, the “tolerated dose, oral administration” value in data set [2] (SCID) is recorded as “up to 100 mg/kg”. For the same molecule, the deaths entry was “two mice died 15 min after administration of the compound and one mouse died 48 hr after administration of the compound” in data set [2] (SCID, po, 150 mg/kg, 48 hr); “One mouse from this group died 24 hr after the administration of the compound” in data set [2] (SCID, po, 200 mg/kg, 48 hr). Further, the signs of distress entry in data set [2] (po, 200 mg/kg) is “two mice exhibited signs of distress which included rapid breathing, bradycardia, shut eyes, and lethargy”.
As for `Nc1ccn([C@@H]2O[C@H](CO)[C@@H](O)C2(F)F)c(=O)n1` [gemcitabine], in data set [3], the “response of the cell lines to the drug alone” value is “all four of the pancreatic cancer cell lines are resistant; also recorded: some resistance”.

The values above are taken from US11083714B2, “Selective anti-cancer agent effective for prevention and treatment” (Molecular International Research, Inc., priority 2018, dated 2021).
